Laboratory results: patent publication US7346384B2, “Method of magnetic resonance investigation of a sample using a nuclear spin polarised MR imaging agent” (GE Healthcare AS, priority 2000, dated 2008)

Legend:
[1] = T1 relaxation time of the reporter compound; format: physicochemical; conditions: high T1 agent; 15N storage nucleus; no field or temperature printed for this value
water solubility = format: physicochemical

## [2H]C([2H])(F)C([2H])([2H])[N+](C)(C)C [molecule (I)]
[1]
  T1 value: about 3 minutes
Water solubility
  water solubility: good
